# Measurements reported in ChEMBL document CHEMBL1201862, “PubChem BioAssay data set” (2004).
#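 Growth conditions: 96-well plates. Treatment: test compound, 48 hours, 5 concentrations. Analysis: linear interpolation between bracketing concentrations; unreached endpoints set to highest concentration. GI50 marks 50% less growth.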 The source made the active and inactive calls. Cut-off read from the data, not from the text of the source: active = GI50 up to about 1.1 µM and inactive = higher.
# Legend:
# Test in all cases: growth of human tumour cells (NCI), 48 h
# [1] = test system: HT-29
# [2] = test system: M14
# [3] = test system: OVCAR-3
# [4] = test system: NCI-H522
# [5] = test system: CAKI-1
# [6] = test system: SF-539
# [7] = test system: ACHN
# [8] = test system: COLO 205
# [9] = test system: OVCAR-5
# [10] = test system: RXF 393
# [11] = test system: SN12C
# [12] = test system: OVCAR-8
# [13] = test system: HOP-92
# [14] = test system: HCT-15
# [15] = test system: HOP-62
# [16] = test system: EKVX
# [17] = test system: SK-MEL-5
# [18] = test system: SW-620
# [19] = test system: MDA-N
# [20] = test system: PC-3
# [21] = test system: UACC-257
# [22] = test system: HCT-116
# [23] = test system: NCI/ADR-RES
# [24] = test system: SF-268
# [25] = test system: IGROV-1
# [26] = test system: UO-31
# [27] = test system: HCC 2998
# [28] = test system: A498
# [29] = test system: NCI-H226
# [30] = test system: SK-MEL-28
# [31] = test system: SR
# [32] = test system: DU-145
# [33] = test system: SNB-75
# [34] = test system: NCI-H23
# [35] = test system: OVCAR-4
# [36] = test system: U-251
# [37] = test system: T47D
# [38] = test system: SK-OV-3
# [39] = test system: A549
# [40] = test system: MCF7
# [41] = test system: KM12
# [42] = test system: SK-MEL-2
# [43] = test system: MDA-MB-435
# [44] = test system: MDA-MB-231
# [45] = test system: K562
# [46] = test system: 786-0
# [47] = test system: SF-295
# [48] = test system: MOLT-4
# [49] = test system: SNB-19
# [50] = test system: LOX IMVI
# [51] = test system: Malme-3M
# [52] = test system: NCI-H460
# [53] = test system: CCRF-CEM
# [54] = test system: UACC-62
smiles,measurement,setting,value
O=S(=O)(O)CCS [MESNA],GI50,[1],> 100 µM (inactive)
same,GI50,[2],> 100 µM (inactive)
same,GI50,[3],> 100 µM (inactive)
same,GI50,[4],> 100 µM (inactive)
same,GI50,[5],> 100 µM (inactive)
same,GI50,[6],> 100 µM (inactive)
same,GI50,[7],> 100 µM (inactive)
same,GI50,[8],> 100 µM (inactive)
same,GI50,[9],> 100 µM (inactive)
same,GI50,[10],> 100 µM (inactive)
same,GI50,[11],> 100 µM (inactive)
same,GI50,[12],> 100 µM (inactive)
same,GI50,[13],> 100 µM (inactive)
same,GI50,[14],> 100 µM
same,GI50,[15],> 100 µM (inactive)
same,GI50,[16],> 100 µM (inactive)
same,GI50,[17],> 100 µM (inactive)
same,GI50,[18],> 100 µM (inactive)
same,GI50,[19],> 100 µM (inactive)
same,GI50,[20],> 100 µM (inactive)
same,GI50,[21],> 100 µM (inactive)
same,GI50,[22],> 100 µM (inactive)
same,GI50,[23],> 100 µM (inactive)
same,GI50,[24],> 100 µM (inactive)
same,GI50,[25],> 100 µM (inactive)
same,GI50,[26],> 100 µM (inactive)
same,GI50,[27],> 100 µM (inactive)
same,GI50,[28],> 100 µM (inactive)
same,GI50,[29],> 100 µM (inactive)
same,GI50,[30],> 100 µM (inactive)
same,GI50,[31],> 100 µM (inactive)
same,GI50,[32],> 100 µM (inactive)
same,GI50,[33],39.7 µM (inactive)
same,GI50,[34],> 100 µM (inactive)
same,GI50,[35],> 100 µM (inactive)
same,GI50,[36],> 100 µM (inactive)
same,GI50,[37],> 100 µM (inactive)
same,GI50,[38],> 100 µM (inactive)
same,GI50,[39],> 100 µM (inactive)
same,GI50,[40],> 100 µM (inactive)
same,GI50,[41],> 100 µM (inactive)
same,GI50,[42],> 100 µM (inactive)
same,GI50,[43],> 100 µM (inactive)
same,GI50,[44],> 100 µM (inactive)
same,GI50,[45],> 100 µM (inactive)
same,GI50,[46],> 100 µM (inactive)
same,GI50,[47],> 100 µM (inactive)
same,GI50,[48],> 100 µM (inactive)
same,GI50,[49],> 100 µM (inactive)
same,GI50,[50],> 100 µM (inactive)
same,GI50,[51],> 100 µM (inactive)
same,GI50,[52],> 100 µM (inactive)
same,GI50,[53],> 100 µM (inactive)
same,GI50,[54],> 100 µM (inactive)
